Measured values: publication PMC6220272, “Scaffold-Hopping from Synthetic Drugs by Holistic Molecular Representation” (Scientific Reports, 2018)

Assays:
Format in all cases: cell-based
[1] = test system: angiopoietin like protein 4 (ANGPTL4) mRNA in HepG2 cells; assay: Target gene quantification (quantitative real-time PCR), ANGPTL4; details: HepG2, 7 at 30 µM versus bexarotene at 1 µM, 8 h, qRT-PCR
Description: (§1) Moreover, 7 was characterized for its ability to modulate RXR target gene expression under more physiological conditions. Hepatoma cells (HepG2) were incubated with 7 (30 µM) or reference RXR agonist bexarotene (9, 1 µM) for eight hours and mRNA expression of RXR regulated genes ATP-binding cassette transporter A1 (ABCA1), angiopoietin like protein 4 (ANGPTL4) and apolipoprotein E (ApoE) was analysed by quantitative real-time PCR.
HepG2 cells were incubated with test compound 7 (30 µM) or bexarotene (1 µM) as positive control each dissolved in 0.1% DMSO or 0.1% DMSO alone as untreated control for 8 h, harvested, washed with cold phosphate buffered saline (PBS) and then directly used for RNA extraction with the Total RNA Mini Kit (R6834-02, Omega Bio-Tek, Inc., Norcross, GA, USA). 2 µg RNA were reverse-transcribed into cDNA using the High-Capacity cDNA Reverse Transcription Kit (4368814, Thermo Fischer Scientific, Inc.). RXR target gene expression was evaluated by quantitative real time PCR analysis with a StepOnePlus™ System (Life Technologies, Carlsbad, CA, USA) using PowerSYBRGreen (Life Technologies; 12.5 µl per well) and the primers reported in Supplementary Table 4[58]. […] The expression was quantified by the comparative ∆∆Ct method. […] Results are expressed as mean ± standard error of the mean (SEM) relative mRNA expression compared to DMSO (0.1%) control which was set as 1.

RARα = molecular target: T1, RARα (Homo sapiens, UniProt P10276); assay: Gal4 hybrid reporter gene assay RARα (selectivity profiling)
T1 construct: expressed in transfected cells; host or cells: HEK293T
T1 sequence (P10276 183-417 limits assumed): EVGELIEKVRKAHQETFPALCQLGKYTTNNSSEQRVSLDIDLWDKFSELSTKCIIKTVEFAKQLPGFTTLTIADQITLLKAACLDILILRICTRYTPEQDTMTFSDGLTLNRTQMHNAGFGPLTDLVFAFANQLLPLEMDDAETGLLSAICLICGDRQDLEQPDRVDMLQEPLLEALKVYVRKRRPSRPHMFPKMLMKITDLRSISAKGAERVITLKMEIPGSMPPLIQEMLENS
Description: as §1
(§2) The Gal4 hybrid reporter gene assays were conducted as reported previously[39]–[41]. pFA-CMV-based constructs comprising the ligand binding domain of the human nuclear receptor in question were used as expression plasmids for the chimera receptors. pFR-Luc (Stratagene) served as reporter plasmid and pRL-SV40 (Promega) for normalization of transfection efficiency and cell growth. The assays were conducted in 96-well format in HEK293T cells that were cultured as described previously[39]–[41]. Transient transfection was carried out using Lipofectamine LTX reagent (Invitrogen) according to the manufacturer’s protocol. After transfection and incubation with test compounds (12–14 h), cells were assayed for luciferase activity using Dual-Glo™ Luciferase Assay System (Promega) according to the manufacturer’s protocol. Luminescence was measured with an Infinite M200 luminometer (Tecan Deutschland GmbH). […]

[2] = test system: Gal4-responsive reporter gene; assay: Control experiment without Gal4-RXR hybrid receptor (reporter gene construct and renilla luciferase only)
Description: as §1, §2

[3] = molecular target: T2, human RXRα ligand binding domain (Gal4 hybrid receptor) (Homo sapiens, UniProt P19793); assay: Gal4 hybrid reporter gene assay RXRα; details: HEK293T cells, n ≥ 4, read-out: RXRα EC50 ± SEM
T2 construct: expressed in transfected cells; host or cells: HEK293T
T2 sequence (P19793 227-458 limits assumed): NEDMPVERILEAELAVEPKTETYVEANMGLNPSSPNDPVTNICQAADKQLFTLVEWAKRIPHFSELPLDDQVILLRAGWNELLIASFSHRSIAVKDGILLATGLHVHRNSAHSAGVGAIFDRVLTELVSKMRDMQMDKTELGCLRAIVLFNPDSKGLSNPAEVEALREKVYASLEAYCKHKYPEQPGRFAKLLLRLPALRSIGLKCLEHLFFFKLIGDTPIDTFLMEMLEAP
Description: The 20 top-ranked synthetic compounds were selected and tested in vitro for their modulatory activity on RXR (Supplementary Table 1). Compounds were tested in specific hybrid reporter gene assays for RXRα, RXRβ and RXRγ modulation[39]–[41]. These assays rely on a constitutively expressed hybrid receptor composed of the respective human RXR ligand binding domain and the DNA binding domain of the Gal4 receptor from yeast. A Gal4 responsive firefly luciferase was used as reporter gene and constitutively expressed renilla luciferase served as internal control for transfection efficiency and test compound toxicity. All selected compounds were tested at 50 µM concentration on RXRα and for active compounds (Supplementary Fig. 1), dose response curves were recorded on all three RXR subtypes.
The Gal4 hybrid reporter gene assays were conducted as reported previously[39]–[41]. pFA-CMV-based constructs comprising the ligand binding domain of the human nuclear receptor in question were used as expression plasmids for the chimera receptors. pFR-Luc (Stratagene) served as reporter plasmid and pRL-SV40 (Promega) for normalization of transfection efficiency and cell growth. The assays were conducted in 96-well format in HEK293T cells that were cultured as described previously[39]–[41]. Transient transfection was carried out using Lipofectamine LTX reagent (Invitrogen) according to the manufacturer’s protocol. After transfection and incubation with test compounds (12–14 h), cells were assayed for luciferase activity using Dual-Glo™ Luciferase Assay System (Promega) according to the manufacturer’s protocol. Luminescence was measured with an Infinite M200 luminometer (Tecan Deutschland GmbH). All hybrid assays were validated with reference agonists (PPARα: GW7647; PPARγ: pioglitazone; PPARδ: L165,041; LXRα/β: T0901317; FXR: GW4064; RXRs: bexarotene; RARs: tretinoin; VDR: calcitriol; CAR: CITCO; PXR: SR12813) which yielded EC50 values in agreement with literature. The assays were conducted in duplicates with at least two independent repeats and for active compounds repeated without hybrid receptor coding DNA for every test compound at the highest tested concentration to exclude unspecific effects.
Supplementary Figure 2. Dose-response curves for RXRα activation. Compounds were tested in specific hybrid reporter gene assays for RXRα, RXRβ and RXRγ modulation.^1–3 These assays rely on a constitutively expressed hybrid receptor composed of the respective human RXR ligand binding domain and the DNA binding domain of the Gal4 receptor from yeast. A Gal4 responsive firefly luciferase was used as reporter gene and constitutively expressed renilla luciferase served as internal control for transfection efficiency and test compound toxicity. […]

activity on RARα (RARα): no activity | reporter transactivation without hybrid receptor [2]: no reporter transactivation | EC50 [3]: 32.1 ± 0.9 µM
SMILES: CC(C)(C)c1cc(/C=N/NC(=O)c2ccc(N)cc2)cc(C(C)(C)C)c1 [Compound 7]
induction of ANGPTL4 mRNA expression [1]: comparable efficacy as RXR agonist bexarotene
